Assay results: patent US7365096B2, “Methods for selectively inhibiting Janus tyrosine kinase 3 (Jak3)” (Board of Regents, The University of Texas System, priority 2002, dated 2008)
“Also recorded” adds a separate entry of the source.

Tested on: NF-kB
Test: TNF-α-induced NF-kB DNA binding, EMSA
Type: cell-based, human
Conditions: same treatment set
Description: EMSA. Electrophoretic mobility shift assay (EMSA). Drug or vehicle control (DMSO) treated cells were pelleted by centrifugation (20,000×g for 1 min at 4° C.) and subsequently washed in five volumes of 10 mM HEPES, pH 7.9, 10 mM KCl, 1.5 mM MgCl2, 0.5 mM DTT, […], 5 μg/ml aprotinin, 1 μg/ml pepstatin A and 2 μg/ml leupeptin, centrifuged, then lysed in the same buffer supplemented with 1% NP-40 and incubated for 20 min on ice. The nuclei-containing pellet was resuspended in equal volumes of low salt buffer (10 mM HEPES, 25% glycerol, 1.5 mM MgCl2, 20 mM KCl, 0.5 mM DTT, 0.2 mM EDTA and protease inhibitors) and high salt buffer (low salt buffer containing 800 mM KCl). This fraction was then isolated by centrifugation at 4° C. for 10 min and supernatants saved as nuclear protein extract and stored at −70° C. Gel mobility shift assays were performed to detect Stat5a/b DNA binding activity using a Stat5 DNA binding sequence corresponding to the promoter of the β-casein gene (5′-[…]-3′) or an NF-kB binding element (5′-[…]-3′). Both probes were end-labeled with [^32P]dATP. […]
In FIG. 9A, it can be seen that NC1153 inhibits Jak3 driven transcription factor-Stat5a/b in PHA activated T-cells treated with increasing concentrations of NC1153 in a dose dependent manner as measured via EMSA analysis (upper panel). […]

## CN(C)CC1CCCCCCCCCC(CN(C)C)C1=O (mixture of isomers) [649641P (NC1153)]
  NF-kB activation / DNA binding by TNF-α (EMSA): not affected; also recorded: no effect
Listed as NC1153
  NF-kB activation / DNA binding by TNF-α (EMSA): not affected
